Experimental data taken from patent US5234942A, “Heterocyclic amides and leucotriene antagonistic use thereof” (ICI Americas Inc., priority 1984, dated 1993).

Test system: leukotrienes
Assay: leukotriene antagonist properties (test not specified; standard tests)
Conditions: in words
Procedure: Using this procedure, tracheal tissue strips are set up in groups of eight, four being used as time/vehicle controls and four for each test compound. All of the strips are exposed to 8×10^-9 M leukotriene E4 (LTE4) following the 50 minute equilibration period, and the response recorded. This concentration of LTE4 is that which produces a contraction equal to about 70-80% of the maximal effect of the agonist in this tissue. The LTE4 is washed out for 40-45 minutes and the procedure repeated twice to ensure that reproducible responses are being obtained with LTE4. Leukotriene C4 (LTC4) or D4 (LTD4), at a concentration of 8×10^-9 M, may be substituted for LTE4 in the same procedure.
Once tissue reproducibility has been established, test compounds are added to four baths following the 40 to 45 minute washout period. After a 10 minute incubation with test compound or vehicle, 8×10^-9 M LTE4, LTD4 or LTC4 is added and the response recorded. The percentage inhibition by the test compound or the percentage change in vehicle controls is calculated, for each tissue, according to the following equation: % inhibition=100 multiplied by (mg. tension increase of preceding response minus mg. tension increase in presence of compound) […]) divided by mg. tension increase of preceding response. The mean percentage change for vehicle controls and test compound are calculated and evaluated for significant differences by Students' t-test for unpaired data. Tissues exposed to test compounds were retested for responsiveness to LTE4, LTD4 or LTC4 following a 25 minute washout period. If tissue responsiveness was equal to responsiveness preceding exposure to the test compound additional studies were conducted. If responsiveness was not restored by the washing procedure, the tissues were discarded. The cyclooxygenase inhibitor, indomethacin, is present at 5×10^-6 M in all the determinations.
In general, compounds of formula I produce a significant increase in the time of onset of leukotriene initiated breathing changes following either oral, intravenous or intra peritoneal administration at a dose of 100 mg./kg., or much less, without any indication of untoward side-effects at several multiples of the minimum effective dose. By way of example, the compounds described in Examples 262, 158 and 168 produced significant increases in time required for onset of leukotriene D4 initiated disponoea following oral dosing at about 5 mg./kg., 43 mg./kg. and 50 mg./kg., respectively, 1-2 hours prior to leukotriene challenge.

Structure (SMILES) | leukotriene antagonist properties
COc1cc(C(=O)O)ccc1Cn1ccc2ccc(NC(=O)CC3CCCC3)cc21 [Example 114] | potent leukotriene antagonist properties
COc1cc(C(=O)O)ccc1Cn1ccc2ccc(NC(=O)OC3CCC3)cc21 [Example 122] | potent leukotriene antagonist properties
CCCCOC(=O)Nc1ccc2ccn(Cc3ccc(-c4nnn[nH]4)cc3OC)c2c1 [Example 157, 6-(butoxycarbonyl)amino-1-(2-methoxy-4-[1(H)-tetrazol-5-yl]benzyl)indole] | potent leukotriene antagonist properties
COc1cc(-c2nnn[nH]2)ccc1Cn1ccc2ccc(NC(=O)OC3CCCC3)cc21 [Example 158, 6-(cyclopentyloxycarbonyl)amino-1-(2-methoxy-4-[1(H)tetrazol-5-yl]benzyl)indole] | potent leukotriene antagonist properties
CCCCOC(=O)Nc1ccc2cnn(Cc3ccc(-c4nnn[nH]4)cc3OC)c2c1 [Example 161, 6-(butyloxycarbonyl)amino-1-(2-methoxy-4-[1(H)-tetrazol-5-yl]benzyl)indazole] | potent leukotriene antagonist properties
COc1cc(-c2nnn[nH]2)ccc1Cn1ncc2ccc(NC(=O)OC3CCCC3)cc21 [Example 162, 6-(cyclopentyloxycarbonyl)amino-1-(2-methoxy-4-[1(H)-tetrazole-5-yl]benzyl)indazole] | potent leukotriene antagonist properties
CCCCC(CC)C(=O)Nc1ccc2cnn(Cc3ccc(-c4nnn[nH]4)cc3OC)c2c1 (stereo not drawn) [Example 163, 6-(2-ethylhexanamido)-1-(2-methoxy-4-[2(H)-tetrazol-5-yl]benzyl)indazole] | potent leukotriene antagonist properties
COc1cc(C(=O)O)ccc1Cn1ncc2ccc(NC(=O)OC3CCCC3)cc21 [Example 170] | potent leukotriene antagonist properties
COc1cc(C(=O)O)ccc1Cn1ccc2ccc(NC(=O)OC3CCCC3)cc21 [Example 176, 4-[6-(cyclopentyloxycarbonyl)aminoindol-1-ylmethyl]-3-methoxybenzoic acid] | potent leukotriene antagonist properties
COc1cc(C(=O)O)ccc1Cn1ccc2ccc(NC(=O)CC3CCCCC3)cc21 [Example 209] | potent leukotriene antagonist properties
COc1cc(C(=O)O)ccc1Cn1cc(Cl)c2ccc(NC(=O)OC3CCCC3)cc21 [Example 221] | potent leukotriene antagonist properties
COc1cc(C(=O)O)ccc1Cn1cc(C(C)=O)c2ccc(NC(=O)OC3CCCC3)cc21 [Example 222] | potent leukotriene antagonist properties
COc1cc(C(=O)O)ccc1Cn1cc(Cl)c2ccc(NC(=O)CC3CCCC3)cc21 [Example 224] | potent leukotriene antagonist properties
CCCCC(CC)C(=O)Nc1ccc2c(C=CC(=O)OC)cn(Cc3ccc(C(=O)O)cc3OC)c2c1 (stereo not drawn) [Example 241, 4-(3-[2-methoxycarbonylvinyl]-6-[2-ethylhexanamido]indol-1-ylmethyl)-3-methoxybenzoic acid] | potent leukotriene antagonist properties
COc1cc(C(=O)NS(=O)(=O)c2ccccc2)ccc1Cn1ccc2ccc(NC(=O)OC3CCCC3)cc21 [Example 256, N-(4-[6-(cyclopentyloxycarbonyl)-aminoindol-1-ylmethyl]-3-methoxybenzoyl)benzenesulphonamide] | potent leukotriene antagonist properties
CCC(C(=O)Nc1ccc2cnn(Cc3ccc(C(=O)NS(=O)(=O)c4ccccc4)cc3OC)c2c1)c1ccccc1 (stereo not drawn) [Example 261, N-(4-[6-(2-phenylbutanamido)indazol-1-ylmethyl]-3-methoxybenzoyl)benzenesulphonamide] | potent leukotriene antagonist properties
COc1cc(C(=O)NS(=O)(=O)c2ccccc2)ccc1Cn1ncc2ccc(NC(=O)OC3CCCC3)cc21 [Example 262] | potent leukotriene antagonist properties
COc1cc(C(=O)NS(=O)(=O)c2ccccc2)ccc1Cn1ncc2ccc(NC(=O)CC3CCCC3)cc21 [Example 263, N-(4-[6-(2-cyclopentylacetamido)indazol-1-ylmethyl]-3-methoxybenzoyl)benzenesulphonamide] | potent leukotriene antagonist properties
COc1cc(C(=O)NS(=O)(=O)c2ccccc2C)ccc1Cn1ncc2ccc(NC(=O)CC3CCCC3)cc21 [Example 264] | potent leukotriene antagonist properties
COc1cc(C(=O)NS(=O)(=O)c2ccccc2C)ccc1Cn1ccc2ccc(NC(=O)CC3CCCC3)cc21 [Example 265] | potent leukotriene antagonist properties
COc1cc(C(=O)NS(=O)(=O)c2ccccc2N)ccc1Cn1ccc2ccc(NC(=O)CC3CCCC3)cc21 [Example 266] | potent leukotriene antagonist properties
COc1cc(C(=O)NS(=O)(=O)c2ccccc2)ccc1Cn1cc(C(C)=O)c2ccc(NC(=O)OC3CCCC3)cc21 [Example 277, N-(4-[3-acetyl-6-(cyclopentyloxycarbonyl)aminoindol-1-ylmethyl]-3-methoxybenzoyl)benzenesulphonamide] | potent leukotriene antagonist properties
COc1cc(C(=O)NS(=O)(=O)c2ccccc2)ccc1Cn1ccc2ccc(NC(=O)C3CCCC3)cc21 [Example 278] | potent leukotriene antagonist properties
COc1cc(C(=O)NS(=O)(=O)c2ccccc2)ccc1Cn1cc(Cl)c2ccc(NC(=O)OC3CCCC3)cc21 [Example 279] | potent leukotriene antagonist properties
COc1cc(C(=O)NS(=O)(=O)c2ccccc2)ccc1Cn1ccc2ccc(NC(=O)CC3CCCC3)cc21 [Example 280, N-(4-[6-(2-cyclopentylacetamido)indol-1-ylmethyl]-3-methoxybenzoyl)benzenesulphonamide] | potent leukotriene antagonist properties
COc1cc(C(=O)NS(=O)(=O)c2ccccc2)ccc1CN1CCc2ccc(NC(=O)CC3CCCC3)cc21 [Example 284, N-(4-[6-(2-cyclopentylacetamido)indolin-1-ylmethyl]-3-methoxybenzoyl)benzenesulphonamide] | potent leukotriene antagonist properties
CCCCOC(=O)Nc1ccc2cnn(Cc3ccc(C(=O)NS(=O)(=O)c4ccccc4)cc3OC)c2c1 [Example 294] | potent leukotriene antagonist properties
